{"source": "patent US9510593B2", "about": "“S-benzylthiouracil compounds and methods of enhancing plant root growth” (Valent BioSciences Corporation, priority 2014, dated 2016)", "assay_type_in_all_cases": "in vivo", "key": {"mungbean": {"test_system": "mungbean", "test": "Mungbean pouch assay: growth of primary root and shoot", "details": "for Shoot Length / Root Length: 4 days after sowing in growth pouches; for Shoot Length: control 4.8; for Root Length: control 8.8", "experimental": "Seeds were placed in germination pouches consisting of germination paper as an insert in a gas-permeable 16×14 cm plastic pouch (CYG Pouch; Mega International, St. Paul, Minn.). In pouch solution evaluation, S-Benzylthiouracil compounds or their salts were dissolved in a small volume of DMSO and added to sterile water with a maximum of 0.5% v/v DMSO at final dilution. The S-Benzylthiouracil solution was subsequently pipetted into the growth pouch, followed by the addition of seeds of the crop being tested. The pouches were arranged in a randomized complete block design in growth racks and placed in 19-liter polycarbonate food storage containers (Rubbermaid Commercial Products, Winchester, Va.). The sealed containers were held in an upright growth cabinet maintained at 25 C with a 12 hour light: 12 hour dark photoperiod. For rice, plants were harvested at 6 d, while in mungbean and corn, the plants were harvested at 4 d post sowing. Measurements were performed on the primary root and shoot of each seedling. The growth of the primary root of mungbean was examined in the pouch assay system. The results of the testing, presented as percent change in root length across all the free S-Benzylthiouracil compounds is shown below. The following S-Benzylthiouracil compounds have benzyl substitutions as defined in Table 11 below."}, "radish cv. Cherry Belle": {"test_system": "radish cv. Cherry Belle", "test": "Radish assay, continuous exposure", "details": "for Root Length / Shoot Length: 6 days; for Root Length: control 3.2; for Shoot Length: control 4.0", "description": "In order to determine if a root crop was sensitive to a S-Benzylthiouracil, we tested the effect of Compound 1 on radish cv. Cherry Belle (Table 21)."}, "[1]": {"test_system": "Maize (cultivar; Kuromochi)", "test": "Maize growth promotion by seed treatment", "details": "for Percent (shoot weight, untreated control = 100) / Average weight of the shoots: 18th day after seeding; for Average weight of the shoots: control 3.8", "experimental": "Maize seeds (cultivar; Kuromochi) were treated with Compound 1 at dose rates of 0.005 grams to 0.5 gram per 100 kilogram seeds. The seeds were sown into a soil pot (one seed/pot) and then cultivated in a growth chamber at a temperature of 27° C. and a day length of 16 hours for 18 days. On the 18th day after seeding, the fresh shoot weight of each plant was examined for 3 replicates."}, "[2]": {"test_system": "Maize (cultivar; Kuromochi)", "test": "Maize growth enhancement by seed treatment under low temperature stress", "details": "for Average weight of the shoots: 2.5° C. for 4 days, 18th day after seeding, control 1.50", "experimental": "Maize seeds (cultivar; Kuromochi) were treated with Compound 1 at dose rates of 0.005 gram to 0.5 gram per 100 kilogram seeds. The seeds were sown into a soil pot (one seed/pot) and then cultivated in a growth chamber at a temperature of 27° C. and a day length of 16 hours for 10 days. On the 10th day after seeding, the plants were subjected to a temperature of 2.5° C. for 4 days at a day length of 16 hours. Following the stress treatment, they were cultivated for an additional 4 days in a growth chamber at a temperature of 27° C. and a day length of 16 hours. On the 18th day after seeding, the fresh shoot weight of each plant was measured for 5 replicates."}, "[3]": {"test_system": "Rice (cultivar; Nipponbare)", "test": "Rice growth enhancement by seed treatment under low temperature stress", "design": "Average weight of the shoots: unit not given here", "details": "for Average weight of the shoots: 4° C. for 6 days, 27th day, control 15.4", "experimental": "Rice seeds (cultivar; Nipponbare) were treated with the Compound 1 at dose rates of 0.5 gram to 50 grams per 100 kilogram seeds. Treated rice seeds were sown and cultivated in 2-fold diluted Kimura B hydroponic solution (Plant Science 119:39-47 (1996) in a growth chamber at a temperature of 28° C. (day)/23° C. (night) and a day length of 12 hours for 10 days.\nFollowing hydroponic cultivation for 10 days the plants were exposed to low temperature stress at 4° C. for 6 days at a day length of 12 hours in a growth chamber. After the low temperature stress treatment, the plants were transferred to 4-fold diluted Hoagland's hydroponic solution (California Agricultural Experiment Station 1950 Circular 347 pp. 34) and cultivated for […] at a temperature of 28° C. and a day length of 12 hours. On the 27th day of the sequential hydroponic cultivation, each fresh shoot weight of the plant was measured for 4 replicates."}, "[4]": {"details": "seed treatment 0.005 grams/100-kg seeds"}, "[5]": {"details": "seed treatment 0.05 grams/100-kg seeds"}, "[6]": {"details": "seed treatment 0.5 grams/100-kg seeds"}, "[7]": {"details": "0.5 grams/100-kg seeds, low temperature stress"}}}
{"compound": "Oc1ccnc(SCc2cccc(F)c2)n1", "note": "[Compound 1, S-(3-Fluorobenzyl)-2-thiouracil]", "values": [{"measurement": "Shoot Length", "setting": "mungbean; 1 ppm", "value": 5.5, "unit": "cm"}, {"measurement": "Root Length", "setting": "mungbean; 1 ppm", "value": 9.9, "unit": "cm"}, {"measurement": "Percent Change in Primary Root Length of Mungbean", "setting": "mungbean; 10 ppm (10 mg/L), benzyl ring substitutions", "value": 10.4, "unit": "%"}, {"measurement": "Shoot Length", "setting": "mungbean; 10 ppm", "value": 5.2, "unit": "cm"}, {"measurement": "Root Length", "setting": "mungbean; 10 ppm", "value": 10.6, "unit": "cm"}, {"measurement": "Shoot Length", "setting": "mungbean; 25 ppm", "value": 4.7, "unit": "cm"}, {"measurement": "Root Length", "setting": "mungbean; 25 ppm", "value": 9.5, "unit": "cm"}, {"measurement": "Shoot Length", "setting": "mungbean; 50 ppm", "value": 3.9, "unit": "cm"}, {"measurement": "Root Length", "setting": "mungbean; 50 ppm", "value": 5.8, "unit": "cm"}, {"measurement": "change in vivo at 10 ppm", "setting": "mungbean; 96 h, 10 ppm (10 mg/L), benzyl ring substitutions, read-out: Percent Change in Primary Root Length of Mungbean", "value": 10.4, "unit": "%"}, {"measurement": "Effect on mungbean root (and shoot) growth, in words", "setting": "mungbean; mungbean pouch assay", "value": "only a moderate increase in root growth"}, {"measurement": "Root Length", "setting": "radish cv. Cherry Belle; 1 ppm", "value": 4.1, "unit": "cm"}, {"measurement": "Shoot Length", "setting": "radish cv. Cherry Belle; 1 ppm", "value": 4.9, "unit": "cm"}, {"measurement": "Root Length", "setting": "radish cv. Cherry Belle; 10 ppm", "value": 3.0, "unit": "cm"}, {"measurement": "Shoot Length", "setting": "radish cv. Cherry Belle; 10 ppm", "value": 3.3, "unit": "cm"}, {"measurement": "Effect on radish root and shoot growth, in words", "setting": "radish cv. Cherry Belle; continuous exposure", "value": "increased root and shoot growth"}, {"measurement": "Average fresh shoot weight versus untreated control, in words", "setting": "[1]; across 0.005 to 0.5 gram per 100 kilogram seeds", "value": "larger than that of the untreated control group"}, {"measurement": "Percent (shoot weight, untreated control = 100)", "setting": "[1]; [4]", "value": 104, "unit": "%"}, {"measurement": "Average weight of the shoots", "setting": "[1]; [4]", "value": 4.0, "unit": "grams/plant"}, {"measurement": "Percent (shoot weight, untreated control = 100)", "setting": "[1]; [5]", "value": 133, "unit": "%"}, {"measurement": "Average weight of the shoots", "setting": "[1]; [5]", "value": 5.1, "unit": "grams/plant"}, {"measurement": "Percent (shoot weight, untreated control = 100)", "setting": "[1]; [6]", "value": 115, "unit": "%"}, {"measurement": "Average weight of the shoots", "setting": "[1]; [6]", "value": 4.4, "unit": "grams/plant"}, {"measurement": "Average weight of the shoots", "setting": "[2]; 0.005 grams/100-kg seeds", "value": 1.78, "unit": "gram/plant"}, {"measurement": "Percent (shoot weight, untreated control = 100)", "setting": "[2]; 0.005 grams/100-kg seeds, low temperature stress", "value": 119, "unit": "%"}, {"measurement": "Average weight of the shoots", "setting": "[2]; 0.05 grams/100-kg seeds", "value": 2.06, "unit": "gram/plant"}, {"measurement": "Percent (shoot weight, untreated control = 100)", "setting": "[2]; 0.05 grams/100-kg seeds, low temperature stress", "value": 138, "unit": "%"}, {"measurement": "Average weight of the shoots", "setting": "[2]; 0.5 grams/100-kg seeds", "value": 1.85, "unit": "gram/plant"}, {"measurement": "Percent (shoot weight, untreated control = 100)", "setting": "[2]; [7]", "value": 124, "unit": "%"}, {"measurement": "Average fresh shoot weight versus untreated control, in words", "setting": "[2]; across 0.005 to 0.5 gram per 100 kilogram seeds, low temperature stress", "value": "larger than that of the untreated control"}, {"measurement": "Average weight of the shoots", "setting": "[3]; 0.5 grams/100-kg seeds", "value": 19.7}, {"measurement": "Percent (shoot weight, untreated control = 100)", "setting": "[3]; [7]", "value": 128, "unit": "%"}, {"measurement": "Average weight of the shoots", "setting": "[3]; 5 grams/100-kg seeds", "value": 39.8}, {"measurement": "Percent (shoot weight, untreated control = 100)", "setting": "[3]; 5 grams/100-kg seeds, low temperature stress", "value": 258, "unit": "%"}, {"measurement": "Average weight of the shoots", "setting": "[3]; 50 grams/100-kg seeds", "value": 34.8}, {"measurement": "Percent (shoot weight, untreated control = 100)", "setting": "[3]; 50 grams/100-kg seeds, low temperature stress", "value": 226, "unit": "%"}, {"measurement": "Average fresh shoot weight versus untreated control, in words", "setting": "[3]; across 0.5 to 50 grams per 100 kilogram seeds, low temperature stress", "value": "larger than that of the untreated control"}]}
